Reference: patent publication US20240124412A1, “IKAROS ZINC FINGER FAMILY DEGRADERS AND USES THEREOF” (Gilead Sciences, Inc., priority 2021, published 2024)

Assays:
IKZF1 = molecular target: T1, IKZF1 (Homo sapiens, UniProt Q13422+Q96SW2); experiment: HiBiT protein tagging assay, in vitro IKZF1 degradation (HEK293); type: cell-based; conditions: HEK293, 18-24 hr incubation, normalized to DMSO control; for Dmax: read-out: IKZF1 Dmax (maximum degradation at the highest concentration tested); for DC50: read-out: IKZF1 EC50
T1 construct: expressed in transfected cells
T1 sequence (Q13422 whole entry): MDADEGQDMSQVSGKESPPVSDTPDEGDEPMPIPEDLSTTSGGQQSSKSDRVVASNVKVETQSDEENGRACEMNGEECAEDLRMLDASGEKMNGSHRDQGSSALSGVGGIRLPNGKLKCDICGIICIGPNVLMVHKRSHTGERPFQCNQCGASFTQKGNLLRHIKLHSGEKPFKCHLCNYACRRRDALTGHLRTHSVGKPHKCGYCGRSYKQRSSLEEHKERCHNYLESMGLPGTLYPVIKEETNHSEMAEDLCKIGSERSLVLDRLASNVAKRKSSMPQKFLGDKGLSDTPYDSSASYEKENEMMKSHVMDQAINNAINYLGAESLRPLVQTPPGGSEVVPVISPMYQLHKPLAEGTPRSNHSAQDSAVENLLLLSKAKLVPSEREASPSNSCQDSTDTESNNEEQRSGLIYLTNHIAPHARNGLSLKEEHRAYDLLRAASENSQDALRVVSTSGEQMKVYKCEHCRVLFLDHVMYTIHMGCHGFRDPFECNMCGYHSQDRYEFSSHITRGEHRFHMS
T1 sequence (Q96SW2 whole entry): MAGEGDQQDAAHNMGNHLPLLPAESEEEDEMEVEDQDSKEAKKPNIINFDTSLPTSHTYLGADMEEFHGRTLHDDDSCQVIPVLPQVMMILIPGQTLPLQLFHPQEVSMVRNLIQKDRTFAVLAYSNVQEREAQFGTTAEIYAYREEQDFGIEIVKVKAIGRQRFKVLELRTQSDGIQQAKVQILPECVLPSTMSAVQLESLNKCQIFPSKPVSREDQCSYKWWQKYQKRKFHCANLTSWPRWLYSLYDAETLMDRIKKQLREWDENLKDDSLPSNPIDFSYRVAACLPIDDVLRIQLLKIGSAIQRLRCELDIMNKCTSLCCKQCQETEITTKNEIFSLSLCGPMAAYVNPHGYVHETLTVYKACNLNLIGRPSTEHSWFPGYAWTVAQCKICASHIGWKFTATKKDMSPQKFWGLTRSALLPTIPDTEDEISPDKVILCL
T1 sequence (Q16531 whole entry partner): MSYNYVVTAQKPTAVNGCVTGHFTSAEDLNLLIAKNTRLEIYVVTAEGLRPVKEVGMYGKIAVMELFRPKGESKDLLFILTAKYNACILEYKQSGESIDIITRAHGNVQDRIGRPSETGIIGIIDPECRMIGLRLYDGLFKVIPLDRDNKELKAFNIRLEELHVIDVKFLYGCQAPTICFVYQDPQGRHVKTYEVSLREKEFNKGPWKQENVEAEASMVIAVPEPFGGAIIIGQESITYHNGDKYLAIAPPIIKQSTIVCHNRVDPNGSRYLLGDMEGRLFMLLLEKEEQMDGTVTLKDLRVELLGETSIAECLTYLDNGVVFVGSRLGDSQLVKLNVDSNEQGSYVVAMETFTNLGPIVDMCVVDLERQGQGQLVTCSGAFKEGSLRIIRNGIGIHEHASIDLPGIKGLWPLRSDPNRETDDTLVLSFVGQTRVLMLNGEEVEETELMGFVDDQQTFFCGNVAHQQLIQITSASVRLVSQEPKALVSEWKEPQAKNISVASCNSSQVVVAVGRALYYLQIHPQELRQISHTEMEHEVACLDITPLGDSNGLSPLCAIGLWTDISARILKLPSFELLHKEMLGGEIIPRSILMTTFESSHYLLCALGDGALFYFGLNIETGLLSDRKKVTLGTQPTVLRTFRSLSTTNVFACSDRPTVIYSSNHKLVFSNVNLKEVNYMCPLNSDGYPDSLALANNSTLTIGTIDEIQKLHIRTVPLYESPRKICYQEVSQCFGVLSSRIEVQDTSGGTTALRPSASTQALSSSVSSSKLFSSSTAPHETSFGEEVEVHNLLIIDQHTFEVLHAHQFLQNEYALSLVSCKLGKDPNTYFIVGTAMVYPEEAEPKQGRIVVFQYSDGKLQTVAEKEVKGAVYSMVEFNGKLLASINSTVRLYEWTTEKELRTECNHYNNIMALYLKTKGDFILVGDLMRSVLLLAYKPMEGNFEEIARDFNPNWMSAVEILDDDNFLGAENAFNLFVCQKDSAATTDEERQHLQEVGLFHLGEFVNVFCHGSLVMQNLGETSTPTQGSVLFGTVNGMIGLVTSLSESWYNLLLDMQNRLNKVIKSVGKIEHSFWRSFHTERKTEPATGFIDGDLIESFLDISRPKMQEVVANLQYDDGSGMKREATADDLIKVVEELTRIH
Summary of the method: (§1)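 Flp-In T-REx HEK293 pools stably expressing C-terminal HiBiT-tagged IKZF1 or IKZF2 were induced overnight with 1 μg/ml doxycycline. Cells were then treated with serially diluted compound for 18-24 hr at 37 °C and read by Nano-Glo lytic luminescence. Data were normalized to 0.5% DMSO as POC; EC50 and Dmax (maximum degradation at highest concentration tested) reported.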

IKZF2 = molecular target: T2, IKZF2 (Homo sapiens, UniProt Q96SW2+Q9UKS7); experiment: HiBiT protein tagging assay, in vitro IKZF2 degradation (HEK293); type: cell-based; conditions: HEK293, 18-24 hr incubation, normalized to DMSO control; for Dmax: HEK293, HiBiT assay, read-out: IKZF2 Dmax (maximum degradation at the highest concentration tested); for DC50: HiBiT assay, read-out: IKZF2 EC50
T2 construct: expressed in transfected cells
T2 sequence (Q9UKS7 1-500 isoform Q9UKS7-2): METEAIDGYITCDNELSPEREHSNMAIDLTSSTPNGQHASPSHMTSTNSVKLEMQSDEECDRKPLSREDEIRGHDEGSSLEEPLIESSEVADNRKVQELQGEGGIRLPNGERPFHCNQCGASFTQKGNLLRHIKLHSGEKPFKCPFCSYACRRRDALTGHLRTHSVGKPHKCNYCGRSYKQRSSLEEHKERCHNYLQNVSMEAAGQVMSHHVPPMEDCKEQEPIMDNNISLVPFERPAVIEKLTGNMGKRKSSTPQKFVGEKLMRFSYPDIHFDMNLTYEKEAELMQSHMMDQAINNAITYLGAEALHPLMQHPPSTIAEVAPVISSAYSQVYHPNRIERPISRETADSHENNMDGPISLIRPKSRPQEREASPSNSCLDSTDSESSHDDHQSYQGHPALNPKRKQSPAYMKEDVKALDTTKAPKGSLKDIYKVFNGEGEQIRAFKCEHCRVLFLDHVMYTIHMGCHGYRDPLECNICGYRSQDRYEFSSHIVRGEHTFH
T2 sequence (Q96SW2 whole entry): as the sequence (Q96SW2 whole entry) above
T2 sequence (Q16531 whole entry partner): as the sequence (Q16531 whole entry partner) above
Summary of the method: as §1

Dmax (IKZF1) [%]	DC50 (IKZF1) [µM]	Dmax (IKZF2) [%]	DC50 (IKZF2) [µM]	SMILES
57	0.213	85	0.17	CO[C@@H]1CCCC[C@H]1NCc1ccc2c(c1)CN(C1CCC(=O)NC1=O)C2=O (stereo partly drawn) [Example 127]
97	0.002	97	0.011	O=C1CCC(N2Cc3cc(CN[C@@H]4CCCN(Cc5cccc(Cl)c5)C4)ccc3C2=O)C(=O)N1 (stereo partly drawn) [Example 99, 3-(5-((((R)-1-(3-chlorobenzyl)piperidin-3-yl)amino)methyl)-1-oxoisoindolin-2-yl)piperidine-2,6-dione]
87	0.004	97	0.008	O=C1CCC(N2Cc3cc(CN[C@@H]4CCC[C@H](Cc5ccccc5)C4)ccc3C2=O)C(=O)N1 (stereo partly drawn) [Example 115]
59	0.144	74	0.171	O=C1CCC(N2Cc3cc(CN[C@H]4CC[C@H](C(F)(F)F)CC4)ccc3C2=O)C(=O)N1 (stereo partly drawn) [Example 77]
27	–	29	1.4	O=C1CCC(N2Cc3cc(CNC4CCN(Cc5ccccc5)C(=O)C4)ccc3C2=O)C(=O)N1 (stereo not drawn) [Example 61]
44	0.609	91	0.361	N#CC[C@H]1CC[C@H](NCc2ccc3c(c2)CN(C2CCC(=O)NC2=O)C3=O)CC1 (stereo partly drawn) [Example 63]
55	0.403	84	0.401	O=C1CCC(N2Cc3cc(CNC4CCC5(CC4)COC5)ccc3C2=O)C(=O)N1 (stereo not drawn) [Example 60]
71	0.032	78	0.064	O=C1CCC(N2Cc3cc(CN[C@H]4CCCc5ccccc54)ccc3C2=O)C(=O)N1 (stereo partly drawn) [Example 43, 3-(1-oxo-5-((((S)-1,2,3,4-tetrahydronaphthalen-1-yl)amino)methyl)isoindolin-2-yl)piperidine-2,6-dione]
64	5.1	66	1.8	O=C1CCC(N2Cc3cc(CNC4CCCC(CO)C4)ccc3C2=O)C(=O)N1 (stereo not drawn) [Example 97, 3-(5-((((1,3-trans)-3-(hydroxymethyl)cyclohexyl)amino)methyl)-1-oxoisoindolin-2-yl)piperidine-2,6-dione]
78	0.025	36	0.11	O=C1CCC(N2Cc3cc(CNCC4CCCc5ccccc54)ccc3C2=O)C(=O)N1 (stereo not drawn) [Example 22, 3-(1-oxo-5-((((1,2,3,4-tetrahydronaphthalen-1-yl)methyl)amino)methyl)isoindolin-2-yl)piperidine-2,6-dione]
